Key:
[1] = tested on: rat hepatoma cells; assay: Cell toxicity by TCA-PTA precipitation analysis; format: cell-based; details: 40 mM
Procedure: After electrophoresis, the gels were stained, fixed, soaked in Enhance fluor solution, and dried following protocols supplied by the manufacturer. Dried gels were then exposed to X-ray film at −70° C. and signals on the resulting fluorograms were typically quantified by densitometry or phosphorimaging. Using the total radioactivity applied to each lane of the gel and the relative signal intensity of each band in that lane, the radioactivity associated with each apoprotein species was calculated. In some cases, gel bands were excised and the incorporated radioactivity measured directly by scintillation counting. As a control, the incorporation of [^35S]methionine into total cellular and secreted proteins was measured by TCA-PTA precipitation, as described in Wang, H., Chen, X., and Fisher, E. A. (1993) J Clin Invest 91(4), 1380-9.
To determine whether the proteasome mediated Ω-3 fatty acid-induced apoB degradation, rat hepatoma cells were incubated at 37° C. for 4 hr in [^35S]methionine-containing medium supplemented with either BSA or EPA/BSA complexes in the absence or presence of the proteasome inhibitor, lactacystin ([…]; purchased from the laboratory of Dr. E. J. Corey, Harvard University). Samples of cell lysates and conditioned media were subjected to immunoprecipitation analysis with anti-apoB antiserum, followed by SDS-PAGE and fluorography. […]

[2] = tested on: rat primary hepatocytes; assay: Lysosomal inhibition and DHA-induced degradation of newly synthesized apoB; format: cell-based; details: with lysosomal inhibitor
Procedure: (§1) To determine whether the proteasome mediated Ω-3 fatty acid-induced apoB degradation, rat hepatoma cells were incubated at 37° C. for 4 hr in [^35S]methionine-containing medium supplemented with either BSA or EPA/BSA complexes in the absence or presence of the proteasome inhibitor, lactacystin ([…]; purchased from the laboratory of Dr. E. J. Corey, Harvard University). Samples of cell lysates and conditioned media were subjected to immunoprecipitation analysis with anti-apoB antiserum, followed by SDS-PAGE and fluorography. To determine whether Ω-3 fatty acids targeted apoB to lysosomal degradation, a similar experiment was performed substituting ammonium chloride (40 mM) for lactacystin.
(§2) More evidence against the involvement of re-uptake in Ω-3 fatty acid-induced degradation of apoB is based on the knowledge that lipoproteins captured by either LDL receptors (Brown, M. S., and Goldstein, J. L. (1986) Science 232(4746), 34-47) or heparan sulfate proteoglycans (Williams, K. J. et al. (1992) J Biol Chem 267(19), 13284-92; and Fuki, I. V. et al. (2000) J Biol Chem 275(33), 25742-50) are directed to lysosomes. Thus, rat primary hepatocytes cells were treated with either OA or DHA in the absence or presence of ammonium chloride, a lysosomal inhibitor. […]

[3] = tested on: 125I-LDL; assay: Degradation of exogenously added 125I-LDL (lysosomal inhibition control); format: cell-based, rat
Procedure: as §1, §2

[4] = tested on: rat hepatoma cells; assay: TBARS assay of ROS in cell lysates of rat hepatoma cells; format: cell-based; details: co-treatment with DHA, FIG. 13C
Procedure: FIG. 13 illustrates that either an iron chelator (DFX) or lipid antioxidants block DHA-stimulated apoB degradation and reactive oxygen species (ROS) production. Rat hepatoma cells were plated in culture wells and pre-incubated in media containing either DHA or DHA with one of the indicated compounds. Radiolabeled methionine/cysteine was added to the culture media for 15 minutes, after which time, the culture media were replaced by fresh media identical in composition except that radiolabeled methionine/cysteine were replaced by unlabeled methionone/cysteine. The recovery of labeled apoB100 ([^35S]-apoB100) from the media and cell lysate was determined at the indicated time points (with time 0 being the point when the fresh media were applied to the cells) by immunoprecipitating apoB species with a rabbit polyclonal antibody to rat apoB, resuspending the immunoprecipitates, combining aliquots from cell lysate and media samples from each well, resolving the protein contents of the combined immunoprecipitates by SDS-polyacrylamide gel electrophoresis (SDS-PAGE), and exposing the resultant gels to X-ray film in order to visualize the labeled apoB bands. In panel A are shown representative signals for radiolabeled apoB100 in each of the treatment conditions. […] For each treatment, there were at least 2 wells/treatment for each time point and the entire experiment repeated. The signal intensities of the apoB100 bands were quantified by densitometry and the mean relative recoveries (the % of the 15 minute, or initial, value still remaining at 120 minutes) ±SEM are shown in panel B. Note that the visual impressions observable in panel A are confirmed by the quantitative analysis; i.e., there is a substantial increase in labeled apoB100 recovery with any of the co-treatments. In panel C, the ROS content of the cell lysates at the end of the experiment was measured by the standard TBARS assay (Stocks et al., 1974, Clin Sci Mol Med 47,215-222). Note that compared to control (BSA), DHA induced a large increase in TBARS, as expected because of its high content on unsaturated bonds. […] FIG. 15 illustrates that AA stimulates apoB100 degradation and increases ROS. […] Note in the upper panel that the combined recovery (from two separate wells/time point) of radiolabeled apoB100 decreased from 15 to 120 minutes, indicating significant apoB100 degradation had occurred in the presence of AA. […] In addition to being a source of ROS, AA can also be converted by cyclooxygenase (COX) to bioactive prostaglandin compounds. We therefore repeated the experiment with AA but with co-treatment by the COX inhibitor aspirin.

[5] = tested on: rat primary hepatocytes; assay: Basal apoB100 degradation (pulse-chase recovery) in rat primary hepatocytes; format: cell-based; details: FIG. 16A
[6] = tested on: rat hepatoma cells; assay: Pulse-chase recovery of [35S]-apoB100 (apoB100 degradation) in rat hepatoma cells; format: cell-based; details: co-treatment with DHA, FIG. 13A and 13B
Procedure: FIG. 13 illustrates that either an iron chelator (DFX) or lipid antioxidants block DHA-stimulated apoB degradation and reactive oxygen species (ROS) production. Rat hepatoma cells were plated in culture wells and pre-incubated in media containing either DHA or DHA with one of the indicated compounds. Radiolabeled methionine/cysteine was added to the culture media for 15 minutes, after which time, the culture media were replaced by fresh media identical in composition except that radiolabeled methionine/cysteine were replaced by unlabeled methionone/cysteine. The recovery of labeled apoB100 ([^35S]-apoB100) from the media and cell lysate was determined at the indicated time points (with time 0 being the point when the fresh media were applied to the cells) by immunoprecipitating apoB species with a rabbit polyclonal antibody to rat apoB, resuspending the immunoprecipitates, combining aliquots from cell lysate and media samples from each well, resolving the protein contents of the combined immunoprecipitates by SDS-polyacrylamide gel electrophoresis (SDS-PAGE), and exposing the resultant gels to X-ray film in order to visualize the labeled apoB bands. In panel A are shown representative signals for radiolabeled apoB100 in each of the treatment conditions. […] For each treatment, there were at least 2 wells/treatment for each time point and the entire experiment repeated. The signal intensities of the apoB100 bands were quantified by densitometry and the mean relative recoveries (the % of the 15 minute, or initial, value still remaining at 120 minutes) ±SEM are shown in panel B. Note that the visual impressions observable in panel A are confirmed by the quantitative analysis; i.e., there is a substantial increase in labeled apoB100 recovery with any of the co-treatments. In panel C, the ROS content of the cell lysates at the end of the experiment was measured by the standard TBARS assay (Stocks et al., 1974, Clin Sci Mol Med 47,215-222). Note that compared to control (BSA), DHA induced a large increase in TBARS, as expected because of its high content on unsaturated bonds.
FIG. 14 illustrates that DHA, but not saturated MA, induces apoB100 degradation in rat hepatoma cells. An experiment similar to the one described in FIG. 13 was performed, with the following changes: A) The immunoprecipitates from cell lysate and media samples were not combined, but separately analyzed. B) In addition to the 15 and 120 minute time points, apoB recovery was determined at 30 minutes. C) In addition to DHA, the effects of the fatty acid myristic (MA) were also tested because it has no unsaturated bonds and should not give rise to ROS.
FIG. 15 illustrates that AA stimulates apoB100 degradation and increases ROS. […] Note in the upper panel that the combined recovery (from two separate wells/time point) of radiolabeled apoB100 decreased from 15 to 120 minutes, indicating significant apoB100 degradation had occurred in the presence of AA. […] In addition to being a source of ROS, AA can also be converted by cyclooxygenase (COX) to bioactive prostaglandin compounds. We therefore repeated the experiment with AA but with co-treatment by the COX inhibitor aspirin.
To further explore the underlying mechanisms, rat hepatoma cells or primary hepatocytes were incubated with the Ω-3 fatty acid DHA complexed to BSA, while blocking candidate cellular mediators. […] There was, however, strong evidence against a role for calcium. Chelation of intracellular Ca^++ with BAPTA-AM, pharmacologic blockage of Ca^++ channels, depletion of the ER-calcium pool, and increasing Ca++ influx with an ionophore each had no effect. Because EGTA also chelates Fe^+++, and DHA is subject to Fe^+++-dependent peroxidation, the role of this lipid modification was examined. As shown in FIG. 13A and 13B, Desferroxamine (DFX), a chelator of Fe^+++, the antioxidant vitamin E (Vit E), and the synthetic antioxidant BHT, each inhibited DHA-stimulated apoB100 degradation by ˜60%.

[7] = tested on: rat primary hepatocytes; assay: TBARS assay of ROS in rat primary hepatocytes; format: cell-based; details: FIG. 16B

| Compound | cell toxicity assessed by TCA-PTA precipitation analysis [1] | DHA-induced degradation of newly synthesized apoB [2] | inhibition of the degradation of exogenously added 125I-LDL ([3]; ammonium chloride 40 mM) [%] | degradation of 125I-LDL ([3]; rat primary hepatocytes) | DHA-increased ROS, TBARS assay, with co-treatment [4] | basal level of apoB degradation [5] | inhibition of DHA-stimulated apoB100 degradation [6] [%] | ROS level (TBARS) [7] |
| --- | --- | --- | --- | --- | --- | --- | --- | --- |
| Cl.N [ammonium chloride] | no evidence of cell toxicity | no decrease | > 80 | decreased |  |  |  |  |
| vitamin E [Vit E] |  |  |  |  | reduced | essentially reversed | ~60 | reduced |
